From PubChem BioAssay AID1963430 (Molecular Pharmacology Branch, DTP, NCI, 2024)

Tested on: 521955-158-R2-J5-PDC complex spheroid growth, % test/control
Assay: Anticancer human tumor 521955-158-R2-J5-PDC patient-derived pancreatic carcinoma cell line growth inhibition [Asc]
Conditions: for IC50: curve of first compound; for viability, T/C: stronger effect = lower value
Outline: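 Concentration series start at each agent's clinical Cmax, or at 10 microM when none is established, and drop in half-log steps; agents are applied alone or together to complex spheroids built with HUVEC and hMSC.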
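Further: spheroids exposed to agents for 7 days before readout.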
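Wherever viability, T/C is given: 100% = DMSO vehicle control viability.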

## Cc1nc(N2CCC3(CC2)COC(C)C3N)c(CO)nc1Sc1ccnc(N)c1Cl (stereo not given) + Cc1c(S(C)(=O)=O)c(-c2cc(F)cc(N3CCN(c4ccc(NS(=O)(=O)c5ccc(NC(CCN6CCC(C(=O)OCCCP(=O)(O)O)CC6)CSc6ccccc6)c(S(=O)(=O)C(F)(F)F)c5)cc4)CC3)c2)c(-c2ccc(Cl)cc2)n1C(C)C
Second compound 0.1 µM
  IC50: 60.8 nM
Second compound 0.316 µM
  IC50: 57.7 nM
Second compound 1 µM
  IC50: 142 nM
Second compound 3.16 µM
  IC50: 392 nM
Second compound 10 µM
  IC50: > 3000 nM
Second compound 0.1 µM, first compound 0.00949 µM
  viability, T/C: 52.9%
Second compound 0.1 µM, first compound 0.03 µM
  viability, T/C: 55.8%
Second compound 0.1 µM, first compound 0.0949 µM
  viability, T/C: 45.8%
Second compound 0.1 µM, first compound 0.3 µM
  viability, T/C: 43.2%
Second compound 0.1 µM, first compound 0.949 µM
  viability, T/C: 34.9%
Second compound 0.1 µM, first compound 3 µM
  viability, T/C: 36.9%
Second compound 0.316 µM, first compound 0.00949 µM
  viability, T/C: 63.6%
Second compound 0.316 µM, first compound 0.03 µM
  viability, T/C: 65.8%
Second compound 0.316 µM, first compound 0.0949 µM
  viability, T/C: 38.9%
Second compound 0.316 µM, first compound 0.3 µM
  viability, T/C: 32.9%
Second compound 0.316 µM, first compound 0.949 µM
  viability, T/C: 30.4%
Second compound 0.316 µM, first compound 3 µM
  viability, T/C: 30.5%
Second compound 1 µM, first compound 0.00949 µM
  viability, T/C: 64.6%
Second compound 1 µM, first compound 0.03 µM
  viability, T/C: 69.4%
Second compound 1 µM, first compound 0.0949 µM
  viability, T/C: 48.2%
Second compound 1 µM, first compound 0.3 µM
  viability, T/C: 39.4%
Second compound 1 µM, first compound 0.949 µM
  viability, T/C: 44.4%
Second compound 1 µM, first compound 3 µM
  viability, T/C: 29.4%
Second compound 3.16 µM, first compound 0.00949 µM
  viability, T/C: 75.9%
Second compound 3.16 µM, first compound 0.03 µM
  viability, T/C: 64.7%
Second compound 3.16 µM, first compound 0.0949 µM
  viability, T/C: 61.2%
Second compound 3.16 µM, first compound 0.3 µM
  viability, T/C: 50.3%
Second compound 3.16 µM, first compound 0.949 µM
  viability, T/C: 43%
Second compound 3.16 µM, first compound 3 µM
  viability, T/C: 48.9%
Second compound 10 µM, first compound 0.00949 µM
  viability, T/C: 230%
Second compound 10 µM, first compound 0.03 µM
  viability, T/C: 221%
Second compound 10 µM, first compound 0.0949 µM
  viability, T/C: 179%
Second compound 10 µM, first compound 0.3 µM
  viability, T/C: 190%
Second compound 10 µM, first compound 0.949 µM
  viability, T/C: 179%
Second compound 10 µM, first compound 3 µM
  viability, T/C: 134%
